# Data: patent publication US20250257331A1, “FLAVONOID GLYCOSIDE GLYCOSYLTRANSFERASE LbUGT71BX1 IN LAPORTEA BULBIFERA AS WELL AS THE CODING GENE AND THE USE THEREOF” (INSTITUTE OF CHINESE MATERIA MEDICA CHINA ACADEMY OF …, priority 2024, published 2025)
# “Also recorded” adds a separate entry of the source.
# System: glycosyltransferase LbUGT71BX1
# Assay: in-vitro enzyme activity testing of recombinant LbUGT71BX1 with flavonoid substrates and UDP-sugar donors (LC-Q-TOF-MS)
# Format: biochemical, Laportea bulbifera
# Settings: purified recombinant enzyme, 37° C., 1 hour, Tris-HCl pH 7.5, compared with pMAL-c2X empty control
# Procedure: The in-vitro enzyme activity testing steps are as follows: the 50 μL reaction system contained 1 μL flavonoid substrate (40 mM) (kaempferol or myricetin or gossypetin or quercetagetin), 1 μL UDP-sugar donor (100 mM) (UDP-galactose or UDP-glucose) and […] purified enzyme, and Tris-HCl buffer (pH 7.5) was used to complement the system. With the pMAL-c2X empty crude enzyme catalytic system as a negative control, place the reaction system at 37° C. for 1 hour, and add the same volume of methanol to stop the reaction. Concentrate the above mixture in vacuo and reconstitute it with 100 μL of methanol. Perform filtration using a 0.22 m microporous membrane and transfer the sample to a liquid vial for assay. Use the Agilent 1290 Infinity II-6430 Q-TOF to test the sample. The specific liquid conditions are as follows: (1) Column: ACQUITY UPLC BEH C18 1.7 m 2.1×100 mm; (2) Mobile phase: 0.1% pure water for phase A and chromatographic acetonitrile for phase B; (3) Flow rate: 0.3 mL/min; (4) Column temperature: 40° C.; (5) Injection volume: 1.0 μL; (6) Elution conditions are shown in Table 6. The mass spectrometry conditions are: the ion mode is negative ion, the scan range is 100-3000; the mode is Automated MS/MS; the ion fragment collision energy is 20 V; the source temperature is 350° C.; the nebulizer pressure is set to 30 psi.
product generated from the flavonoid substrate by LbUGT71BX1 (UDP-galactose as sugar donor),Structure (SMILES),product generated from the flavonoid substrate by LbUGT71BX1 (UDP-glucose as sugar donor)
,O=c1c(O)c(-c2ccc(O)c(O)c2)oc2c(O)c(O)cc(O)c12 [gossypetin],gossypetin-3-O-glucoside
kaempferol-3-O-galactoside,O=c1c(O)c(-c2ccc(O)cc2)oc2cc(O)cc(O)c12 [kaempferol],kaempferol-3-O-glucoside
myricetin-3-O-galactoside,O=c1c(O)c(-c2cc(O)c(O)c(O)c2)oc2cc(O)cc(O)c12 [myricetin],myricetin-3-O-glucoside; also recorded: myricetin-7-O-glucoside
